Results reported in patent publication US11883387B2, “PqsR inverse agonists” (HELMHOLTZ-ZENTRUM FÜR INFEKTIONSFORSCHUNG GMBH, priority 2018, dated 2024).
≈ marks a conversion by molar mass, not a printed value.

Assays:
[1] = Kinetic Turbidimetric Aqueous Solubility at room temperature for 5 min; format: physicochemical; details: PBS buffer, kinetic from dmso stock, 2% DMSO
How it was run: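 Compound diluted in PBS across typically 0.4–200 μM (final DMSO 2%), held 5 min at room temperature. Turbidity read as absorbance at 620 nm against vehicle control. Four-parameter sigmoidal fit of normalized absorbances with AUC calculation gives Log S.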

HEK293 cells = assay: Cytotoxicity (MTT) toward HEK293; format: cell-based; details: Homo sapiens, 48 h, upper class: or at solubility maximum, read-out: IC50-value towards HEK293
Procedure: (§1) To obtain information regarding the toxicity of our compounds, their impact on the viability of human cells was investigated. HepG2 and HEK293 cells (2×10^5 per well) were seeded in 24-well, flat-bottomed culture plates. 24 h after seeding the cells the incubation was started by the addition of compounds in a final DMSO concentration of 1%. The living cell mass was determined 48 h after treatment with compounds by adding 0.1 volumes of 3-(4,5-dimethylthiazol-2-yl)-2,5-diphenyltetrazolium bromide (MTT) solution (5 mg per mL sterile PBS) (Sigma, St. Louis, MO) to the wells. After incubating the cells for 30 min at 37° C. (atmosphere containing 5% CO2), MTT crystals were dissolved in a solution containing 10% SDS and 0.5% acetic acid in DMSO. The optical density (OD) of the samples was determined photometrically at 570 nm in a FLUOstar Omega plate reader (BMG labtech, Ortenberg, Germany). To obtain inhibition values for each sample, their ODs were related to those of DMSO controls.

[2] = tested on: P. aeruginosa pyocyanin production; assay: Pyocyanin assay; format: cell-based, P. aeruginosa PA14; details: Pseudomonas aeruginosa, PA14, 16 h, read-out: IC50-value towards pyocyanin production, PA14 in PPGAS medium, 16 h
How it was run: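 PA14 in PPGAS medium from OD600 0.02 grown 16 h at 37 °C, 200 rpm, with compounds. Pyocyanin extracted with chloroform, back-extracted into 0.2 M HCl, OD520 normalised to OD600.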

PqsR = PqsR (Pseudomonas aeruginosa, UniProt Q9I4X0); assay: E. coli based β-galactosidase reporter gene assay (PqsR inverse agonistic activity); format: cell-based; parameters: expressed in transfected cells; host or cells: Escherichia coli DH5α
Sequence of PqsR (Q9I4X0 whole entry): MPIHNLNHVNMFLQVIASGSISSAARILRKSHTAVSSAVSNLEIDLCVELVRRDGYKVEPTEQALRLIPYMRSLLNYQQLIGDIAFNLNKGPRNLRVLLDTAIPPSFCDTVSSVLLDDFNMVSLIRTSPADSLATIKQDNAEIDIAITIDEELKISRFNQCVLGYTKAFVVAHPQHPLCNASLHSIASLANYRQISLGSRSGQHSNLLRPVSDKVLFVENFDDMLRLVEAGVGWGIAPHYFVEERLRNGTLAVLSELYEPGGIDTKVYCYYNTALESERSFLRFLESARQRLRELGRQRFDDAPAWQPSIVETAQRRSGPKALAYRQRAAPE
How it was run: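 E. coli DH5α carrying pEAL08-2 (tac-driven pqsR with pqsA-lacZ) was grown to OD600 0.2 and incubated with 0.001–10 μM compound plus 50 nM PQS for 2.5 h at 37 °C. β-Galactosidase activity was measured by ONPG conversion in permeabilized cells and normalized between the no-PQS and solvent controls. IC50 came from concentration variation.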

HepG2 cells = assay: Cytotoxicity (MTT) toward HepG2; format: cell-based; details: Homo sapiens, 48 h, upper class: or at solubility maximum, read-out: IC50-value towards HepG2
Procedure: as §1

[3] = tested on: production of signal molecules HHQ and PQS; details: inhibitor targeting the enzyme PqsA; read-out: IC50 for reduction of production of signal molecules HHQ and PQS; cited from earlier work
[4] = Metabolic stability in mouse liver microsomes (MLM); format: in vitro ADME; details: 1 μM compound, 0.5 mg/mL MLM, 1 mM NADPH, 37° C., read-out: half-life (t1/2) towards MLM
Procedure: For the evaluation of phase I metabolic stability, the compound (1 μM) was incubated with 0.5 mg/mL MLM (Corning) and 1 mM NADPH at 37° C. for 0, 5, 10, 15 and 30 min. The metabolic stability of Verapamil, Diphenhydramine and Benzydamine (1 μM each) were determined in parallel to confirm the enzymatic activity of the MLM. The incubation was stopped by addition of 2 volumes of acetonitrile containing internal standard (1 μM Leucine Enkephaline). Samples were centrifuged (15 min, 3,500 rpm). Concentration of the remaining test compound at the different time points was analyzed by HPLC-MS/MS and used to determine half-life (t1/2).

[5] = Metabolic stability against human hepatic S9 fraction; format: in vitro ADME
Procedure: For the evaluation of combined phase I and phase II metabolic stability, the compound (1 μM) was incubated with 1 mg/mL pooled human liver S9 fraction (BD Gentest), 2 mM NADPH regenerating system, 1 mM UDPGA, 10 mM MgCl2 and 0.1 mM PAPS at 37° C. for 0, 5, 15, 30 and 60 min. The metabolic stability of Testosterone (1 μM) and 7-hydroxycoumarin (1 μM) were determined in parallel to confirm the enzymatic activity of the S9 fraction. The incubation was stopped by precipitation of S9 enzymes with 2 volumes of cold acetonitrile containing internal standard (750 nM Diphenhydramine). Samples were stored on ice for 10 min and precipitated protein was removed by centrifugation (10 min, 4° C., 17,000 g). Concentration of the remaining test compound at the different time points was analyzed by LC-MS/MS (TSQ Quantum Access MAX, Thermo Fisher, Dreieich, Germany) and used to determine half-life (t/2).

[6] = Turbidimetric Aqueous Solubility at 37° C. for 2 h; format: physicochemical; details: aqueous buffer, kinetic from dmso stock, 1% DMSO in buffer, estimated precipitation range
Procedure: Turbidimetric Aqueous Solubility at 37° C. for 2 h. Test compound was diluted in buffer to give a range of concentrations (typically 1, 3, 10, 30 and 100 μM, final DMSO concentration 1%) and incubated at 37° C. for 2 hr. Absorbance was measured at a wavelength of 620 nm and the solubility was estimated from the concentration of test compound that produces an increase in absorbance above the vehicle control (i.e., 1% DMSO in buffer). An estimated precipitation range (lower and upper bound) was provided as result.

[7] = pooled human liver S9 fraction, 1 μM compound, 1 mg/mL pooled human liver S9, phase I and II cofactors, 37° C., read-out: half-life (t1/2) towards human hepatic S9 fraction

| SMILES | solubility at 5 min [1] [µM] | IC50 (HEK293 cells) [µM] | IC50 [2] [µM] | IC50 (PqsR) [µM] | IC50 (HepG2 cells) [µM] | IC50 [3] [µM] | half-life at 1 μM [4] [h] | half-life at 1 μM ([5]; human, s9) [h] | solubility at 5 min ([1]; aqueous buffer) [µM] | solubility at 2 h [6] [µM] | half-life at 1 μM [5, 7] [h] |
| --- | --- | --- | --- | --- | --- | --- | --- | --- | --- | --- | --- |
| FC(F)(F)c1cc(SCc2nc3cc(Oc4ccccc4)ccc3[nH]2)ccn1 [Compound 127, 5-Phenoxy-2-(((2-(trifluoromethyl)pyridin-4-yl)thio)methyl)-1H-benzo[d]imidazole] | > 10 | 25 to 50 | ≤ 0.25 | ≤ 0.05 | 25 to 50 |  |  |  |  |  |  |
| FC(F)(F)c1cc(NCc2ccc(-c3ccc(Oc4ccccc4)cc3)cn2)ccn1 [Compound 097, N-((5-(4-phenoxyphenyl)pyridin-2-yl)methyl)-2-(trifluoromethyl)pyridin-4-amine] | > 10 | 25 to 50 | 0.251 to 1 | 0.051 to 0.25 | 25 to 50 |  |  |  |  |  |  |
| Nc1cccc(F)c1C(=O)O [Compound 6FABA] |  |  |  |  |  | ~100 |  |  |  |  |  |
| Nc1cc(SCc2nc3cc(Oc4cccc(F)c4)ccc3[nH]2)nc(C(F)(F)F)n1 [Compound 129, 6-(((5-(3-Fluorophenoxy)-1H-benzo[d]imidazol-2-yl)methyl)thio)-2-(trifluoromethyl)pyrimidin-4-amine] |  | 25 to 50 |  | ≤ 0.05 | 25 to 50 |  | 0.517 to 1 |  |  |  |  |
| FC(F)(F)c1cc(NCc2cnc(-c3ccc(Oc4ccccc4)cc3)s2)ccn1 [Compound 071, N-((2-(4-Phenoxyphenyl)thiazol-5-yl)methyl)-2-(trifluoromethyl)pyridin-4-amine] |  | 25 to 50 | 0.251 to 1 | ≤ 0.05 | 25 to 50 |  |  | > 1 |  |  |  |
| FC(F)(F)c1cc(NCc2csc(-c3ccc(Oc4ccccc4)cc3)n2)ccn1 [Compound 080, N-((2-(4-Phenoxyphenyl)thiazol-4-yl)methyl)-2-(trifluoromethyl)pyridin-4-amine] | > 10 | 25 to 50 | 1 to 5 | ≤ 0.05 | 25 to 50 |  |  |  |  |  |  |
| Fc1cc2nc(CSc3ccnc(C(F)(F)F)c3)[nH]c2cc1F [Compound 122, 5,6-Difluoro-2-(((2-(trifluoromethyl)pyridin-4-yl)thio)methyl)-1H-benzo[d]imidazole] | ≥ 100 | ≥ 50 |  | 0.251 to 1 | ≥ 50 |  |  |  |  |  |  |
| CC(C)Oc1ccc(-c2ncc(CNc3ccnc(C(F)(F)F)c3)cn2)cc1Cl [Compound 108, N-((2-(3-Chloro-4-isopropoxyphenyl)pyrimidin-5-yl)methyl)-2-(trifluoromethyl)pyridin-4-amine] |  |  | ≤ 0.25 | ≤ 0.05 |  |  |  |  | > 25 | 10 to 30 (≈ 4.23 to 12.7 µg/mL) |  |
| FC(F)(F)c1cc(NCc2cnc(-c3ccc(Cl)cc3)s2)ccn1 [Compound 072, N-((2-(4-Chlorophenyl)thiazol-5-yl)methyl)-2-(trifluoromethyl)pyridin-4-amine] | > 25 |  | 0.251 to 1 | 0.051 to 0.25 | 25 to 50 |  | > 1 |  |  |  | > 1 |
| FC(F)(F)Oc1ccc(-n2cc(CNc3ccnc(C(F)(F)F)c3)nn2)cc1Cl [Compound 022, N-((1-(3-Chloro-4-(trifluoromethoxy)phenyl)-1H-1,2,3-triazol-4-yl)methyl)-2-(trifluoromethyl) pyridin-4-amine] | > 25 | 25 to 50 | 0.251 to 1 | ≤ 0.05 | 25 to 50 |  | 0.517 to 1 |  |  |  |  |
| FC(F)(F)Oc1ccc(-n2cc(CNc3ccnc(C(F)(F)F)c3)nn2)cc1 [Compound 012, N-((1-(4-(Trifluoromethoxy)phenyl)-1H-1,2,3-triazol-4-yl)methyl)-2-(trifluoromethyl)pyridin-4-amine] |  | 25 to 50 | 1 to 5 | ≤ 0.05 |  |  |  |  |  |  |  |
| Cc1cccc(Oc2ccc3[nH]c(CSc4cc(N)nc(C(F)(F)F)n4)nc3c2)c1 [Compound 128, 6-(((5-(m-Tolyloxy)-1H-benzo[d]imidazol-2-yl)methyl)thio)-2-(trifluoromethyl)pyrimidin-4-amine] | > 25 | 25 to 50 |  | ≤ 0.05 | 25 to 50 |  |  |  |  |  |  |
| CC(C)Oc1ccc(-c2nc(CNc3ccnc(C(F)(F)F)c3)cs2)cc1 [Compound 087, N-((2-(4-Isopropoxyphenyl)thiazol-4-yl)methyl)-2-(trifluoromethyl)pyridin-4-amine] | > 10 |  | ≤ 0.25 | ≤ 0.05 |  |  |  |  |  |  | > 1 |
| FC(F)(F)c1cc(NCc2nc3ccc(Oc4ccccc4)cc3o2)ccn1 [Compound 134, N-((6-Phenoxybenzo[d]oxazol-2-yl)methyl)-2-(trifluoromethyl)pyridin-4-amine] | ≥ 100 |  |  | 0.251 to 1 |  |  |  |  |  |  | > 1 |
| Fc1cc(-n2cc(CNc3ccnc(C(F)(F)F)c3)nn2)ccc1Oc1ccccc1 [Compound 028, N-((1-(3-fluoro-4-phenoxyphenyl)-1H-1,2,3-triazol-4-yl)methyl)-2-(trifluoromethyl)pyridin-4-amine] |  | 25 to 50 | 0.251 to 1 | ≤ 0.05 | 25 to 50 |  |  |  |  |  |  |
| Nc1cc(SCc2nc3cc(Oc4ccccc4)ccc3[nH]2)nc(C(F)(F)F)n1 [Compound 125, 6-(((5-Phenoxy-1H-benzo[d]imidazol-2-yl)methyl)thio)-2-(trifluoromethyl)pyrimidin-4-amine] | > 25 |  | 0.251 to 1 | ≤ 0.05 |  |  |  |  |  |  | > 1 |
| N#Cc1cc(NCc2cnc(-c3ccc(Oc4ccccc4)cc3)s2)ccn1 [Compound 076, 4-(((2-(4-Phenoxyphenyl)thiazol-5-yl)methyl)amino)picolinonitrile] |  |  | ≤ 0.25 | ≤ 0.05 |  |  | > 1 |  |  |  | > 1 |
| COc1ccc(-c2ncc(CNc3ccnc(C#N)c3)s2)cc1Cl [Compound 077, 4-(((2-(3-Chloro-4-methoxyphenyl)thiazol-5-yl)methyl)amino)picolinonitrile] | > 10 |  | ≤ 0.25 | ≤ 0.05 | 25 to 50 |  |  |  |  |  |  |
| Nc1cc(SCc2nc3cc(Cl)ccc3[nH]2)nc(C(F)(F)F)n1 [Compound 118, 6-(((5-Chloro-1H-benzo[d]imidazol-2-yl)methyl)thio)-2-(trifluoromethyl)pyrimidin-4-amine] |  |  | 1 to 5 | 0.051 to 0.25 |  |  |  |  |  |  | > 1 |
